“Also recorded” adds a separate entry of the source.
Assays:
caErbb2 CMs [1] = assay: Cell-cycle re-entry (Ki67) of P7 caErbb2 CMs treated in vitro with inhibitors or factors; format: cell-based, mouse; details: P7 neonatal caErbb2 heart cells, treated in vitro for 2 days
Excerpt: (§1) Doxycycline inducible CM restricted overexpression of a constitutively active Erbb2 (caErbb2) was generated by crossing TetRE-caErbb2 mouse line^65 (a B6SJLF1/J transgenic line in which this mutated Erbb2 is placed under the control of a minimal CMV promoter and the tetracycline-responsive element) with αMHC-tTA^66, which expresses the tetracycline-responsive transcriptional activator (tTA) under the control of the human alpha myosin heavy chain promoter (αMHC) promoter (see FIG. 10A). αMHC-tTA strain was created in the FVB background and then the line was backcrossed to C57BL/6. Doxycycline (DOX, Harlan Laboratories) was administered in the food to repress transgene expression.
(§2) Primary cardiomyocytes were isolated from 1-day-old (P1) and 7-days-old (P7) mice using a neonatal dissociation kit (gentleMACS, Germany), according to the manufacturer's instructions, and cultured in gelatin-coated (0.1%, G1393, Sigma, St. Louis, Mo., USA) wells with DMEM/F12 medium supplemented with L-glutamine, Na-pyruvate, Non-essential amino acids, penicillin, streptomycin, 5% Horse serum and 10% FBS (hereafter referred to as “complete-medium”) at 37° C. and 5% CO2.
(§3) In cultures isolated from hearts of P7 ctrl and caErbb2-cOE animals, the cells were seeded in the aforementioned complete-medium for 48 hours, in the presence of the following substances: MEK/MAPKK kinase inhibitor regarded in the text as ERK inhibitor (2 μM, PD0325901, Tocris Bioscience, Bristol, UK), AKT1/2 inhibitor (5 μM, AKT inhibitor VIII, ApexBio, Houston, Tex., USA), GSK3β inhibitor (10 μM, CHIR-99021, Axon Medchem, Netherlands), β-Catenin inhibitor (10 μM, IWR-1, Sigma, St. Louis, Mo., USA), p38 inhibitor (10 μM SB202190, Merck Millipore, Massachusetts, USA), Periostin (500 ng/ml; BioVendor, Brno Czech Republic), FGF1 (100 ng/ml; R&D Systems, MN, USA). The dissolving reagents were added to unstimulated samples. Subsequently, cells were fixed in 4% PFA and stained for markers of interest.
(§4) Heart sections underwent deparaffinization, fixation in 4% PFA (5 minutes) and microwave antigen retrieval in EDTA or citric acid buffer, followed by gradual chilling. Then heart sections and cultured cells were processed in the following manner. Samples were permeabilized with 0.5% Triton X-100 in PBS for 5 minutes and blocked with 5% bovine serum albumin (BSA, Sigma, St. Louis, Mo., USA) in PBS containing 0.1% Triton for 1 hour at room temperature. Then samples were incubated 1 hour at room temperature or overnight at 4° C. with the following antibodies diluted in 3% BSA blocking solution: anti-Troponin T (1:200, ab33589, Abcam, Cambridge, Mass., USA), anti-Troponin I (1:200, ab47003, Abcam, Cambridge, Mass., USA) or anti-NKX2.5 (1:200, ab35842, Abeam, Cambridge, Mass., USA) Abs were used to identify CMs. Anti-Ki67 antibody (1:200, 275R, Cell Marque, Austin, Tex., USA) anti-BRDU antibody (1:100, G3G4, DSHB, Iowa City, Iowa, USA), anti-phosphorylated-Histone3 (pH3) antibody (1:200, SC-8656-R, Santa Cruz Biotechnology Inc., Santa Cruz, Calif., USA) and anti-Aurora B (1:100, 611082, BD Transduction Laboratories, Lexington, Ky., USA) were used to analyze cell cycle re-entry, DNA synthesis, karyokinesis and cytokinesis, respectively. Other Abs used in the study: anti-ErbB2 (1:50, sc-284, Santa Cruz Biotechnology Inc., Santa Cruz, Calif., USA), anti-αSMA (1:50, A5691, Sigma, St. Louis, Mo., USA), RUNX1 (1:200, ab92336, Abcam, Cambridge, Mass., USA), anti-DAB2 (1:200, sc-13982, Santa Cruz Biotechnology Inc., Santa Cruz, Calif., USA), anti-β-Catenin (1:200, ab32572, Abcam, Cambridge, Mass., USA). After three washes with PBS, 10 minutes each, samples were stained for 1 hour at room temperature or overnight at 4° C. with fluorescent secondary antibodies (Abeam, Cambridge, Mass., USA) followed by 10 minutes of DAPI (4,6-diamidino-2-phenylindole dihydrochloride) staining for nuclei visualization. […]

caErbb2 CMs [2] = assay: Dedifferentiation (RUNX1 expression, sarcomeric disassembly) of P7 caErbb2 CMs treated in vitro with inhibitors or factors; format: cell-based, mouse; details: P7 neonatal caErbb2 heart cells, treated in vitro for 2 days
Excerpt: as §1, §2, §3, §4

caErbb2 CMs [3] = assay: Hypertrophy (cell area) of P7 caErbb2 CMs treated in vitro with inhibitors or factors; format: cell-based, mouse; details: P7 neonatal caErbb2 heart cells, treated in vitro for 2 days
Excerpt: as §1, §2, §3, §4

P1 and P7 mouse CMs = assay: NRG1-stimulated proliferation of cultured P1 and P7 cardiomyocytes (Ki67, BrdU, pH3, AuroraB immunofluorescence, counting newly formed CMs); format: cell-based; details: various NRG1 doses, 72 hours
Description: as §2
In experiments involving administration of Neuregulin-1b (NRG1, R&D Systems, MN, USA), the cells were allowed to adhere for 48 hours in complete-medium. Subsequently, the medium was replaced with an FBS-deprived complete-medium containing the indicated NRG1 doses for 72 hours. BrdU (10 μM, B5002, Sigma, St. Louis, Mo., USA) was introduced along with NRG1. Cells were fixed in 4% PFA and stained for markers of interest.
(§5) Heart sections underwent deparaffinization, fixation in 4% PFA (5 minutes) and microwave antigen retrieval in EDTA or citric acid buffer, followed by gradual chilling. […] Slides were mounted with Immu-mount (9990412, Thermo scientific, MA, USA) and viewed under a fluorescence microscope (Nikon Intensilight or Nikon eclipse 90i, Nikon, Düsseldorf, Germany) or spinning disk confocal microscope (Carl Zeiss, Thornwood, N.Y., USA) as specified in the figure legends.

neonatal Erbb2-cKO CMs = assay: NRG1-stimulated proliferation of cultured CMs from P1 Erbb2-cKO mice (Ki67, pH3, newly formed CMs); format: cell-based, mouse; details: CMs isolated from P1 Erbb2-cKO mice, NRG1 in vitro
Excerpt: CM-restricted deletion of Erbb2 (Erbb2-cKO) was generated by crossing Erbb2^flox/flox 41 to Erbb2^lacZ/+; αMHC-Cre mice (see FIG. 2A). The Erbb2^lacZ/+ mice used in this study carry an allele that encodes a nonfunctional ErbB2-galactosidase fusion protein lacking the tyrosine kinase domain^42. In some experiments, addition of ROSA26-tdTomato allele to this system has been used to label cardiac muscle cell lineage in Erbb2-cKO mice. Erbb2^flox/flox and Erbb2^lacZ/+ mice were maintained on a C57BL/6 background. […]
as §5

β-Catenin in caErbb2 CMs = assay: β-Catenin immunofluorescence in P7 caErbb2 heart cells treated in vitro with inhibitors; format: cell-based, mouse; details: P7 neonatal caErbb2 heart cells, 10 μM
Excerpt: as §1
Primary cardiomyocytes were isolated from 1-day-old (P1) and 7-days-old (P7) mice using a neonatal dissociation kit (gentleMACS, Germany), according to the manufacturer's instructions, and cultured in gelatin-coated (0.1%, G1393, Sigma, St. Louis, Mo., USA) wells with DMEM/F12 medium supplemented with L-glutamine, Na-pyruvate, Non-essential amino acids, penicillin, streptomycin, 5% Horse serum and 10% FBS (hereafter referred to as “complete-medium”) at 37° C. and 5% CO2. […]

O=C(NOC[C@H](O)CO)c1ccc(F)c(F)c1Nc1ccc(I)cc1F [ERK inhibitor, PD0325901]
caErbB2-induced CM proliferation / cell cycle re-entry (Ki67) (caErbb2 CMs [1]): completely suppressed | caErbB2-induced CM dedifferentiation (sarcomeric disassembly and RUNX1 expression) (caErbb2 CMs [2]): completely suppressed | caErbB2-induced hypertrophic response (CM cell area) (caErbb2 CMs [3]): reduced the hypertrophic response

FGF1
caErbB2-induced CM proliferation / cell cycle re-entry (Ki67) (caErbb2 CMs [1]): enhanced | RUNX1 expression in caErbb2 CMs (caErbb2 CMs [2]): p38 inhibition, in contrast to FGF1 and Periostin, increased RUNX1 expression | caErbB2-induced hypertrophic response (CM cell area) (caErbb2 CMs [3]): No obvious effects

Oc1ccc(-c2nc(-c3ccncc3)c(-c3ccc(F)cc3)[nH]2)cc1 [p38 inhibitor, SB202190]
caErbB2-induced CM proliferation / cell cycle re-entry (Ki67) (caErbb2 CMs [1]): enhanced | RUNX1 expression in caErbb2 CMs (caErbb2 CMs [2]): increased | caErbB2-induced hypertrophic response (CM cell area) (caErbb2 CMs [3]): No obvious effects

Neuregulin-1b [NRG1]
CM proliferation (cell cycle activity, DNA synthesis, mitosis, cytokinesis, newly formed CMs) (P1 and P7 mouse CMs; P1 mouse CMs in vitro): dose-dependent increase | CM proliferation (cell cycle activity, DNA synthesis, mitosis, cytokinesis, newly formed CMs) (P1 and P7 mouse CMs; P7 mouse CMs in vitro): profoundly reduced effects; also recorded: diminished | CM proliferation (Ki67, pH3, newly formed CMs) (neonatal Erbb2-cKO CMs): unable to induce CM proliferation

O=c1[nH]c2ccccc2n1C1CCN(Cc2ccc(-c3nc4cc5[nH]cnc5cc4nc3-c3ccccc3)cc2)CC1 [AKT inhibitor, AKT inhibitor VIII]
caErbB2-induced CM proliferation / cell cycle re-entry (Ki67) (caErbb2 CMs [1]): moderate effect | caErbB2-induced CM dedifferentiation (sarcomeric disassembly and RUNX1 expression) (caErbb2 CMs [2]): promoted massive dedifferentiation | caErbB2-induced hypertrophic response (CM cell area) (caErbb2 CMs [3]): reduced hypertrophic response

Cc1c[nH]c(-c2cnc(NCCNc3ccc(C#N)cn3)nc2-c2ccc(Cl)cc2Cl)n1 [GSK3β inhibitor, CHIR-99021]
caErbB2-induced CM proliferation / cell cycle re-entry (Ki67) (caErbb2 CMs [1]): promoted β-Catenin independent increase in cell cycle activity | RUNX1 expression in caErbb2 CMs (caErbb2 CMs [2]): further increased | β-Catenin accumulation in caErbb2 CMs (β-Catenin in caErbb2 CMs): further increased

O=C(Nc1cccc2cccnc12)c1ccc(N2C(=O)[C@@H]3[C@H](C2=O)[C@@H]2C=C[C@H]3C2)cc1 [β-Catenin inhibitor, IWR-1]
caErbB2-induced CM proliferation / cell cycle re-entry (Ki67) (caErbb2 CMs [1]): without significantly affecting | RUNX1 expression in caErbb2 CMs (caErbb2 CMs [2]): reduced | caErbB2-induced hypertrophic response (CM cell area) (caErbb2 CMs [3]): without significantly affecting

B1: Periostin (protein, UniProt Q15063 22-836, looked up)
Periostin: NNHYDKILAHSRIRGRDQGPNVCALQQILGTKKKYFSTCKNWYKKSICGQKTTVLYECCPGYMRMEGMKGCPAVLPIDHVYGTLGIVGATTTQRYSDASKLREEIEGKGSFTYFAPSNEAWDNLDSDIRRGLESNVNVELLNALHSHMINKRMLTKDLKNGMIIPSMYNNLGLFINHYPNGVVTVNCARIIHGNQIATNGVVHVIDRVLTQIGTSIQDFIEAEDDLSSFRAAAITSDILEALGRDGHFTLFAPTNEAFEKLPRGVLERIMGDKVASEALMKYHILNTLQCSESIMGGAVFETLEGNTIEIGCDGDSITVNGIKMVNKKDIVTNNGVIHLIDQVLIPDSAKQVIELAGKQQTTFTDLVAQLGLASALRPDGEYTLLAPVNNAFSDDTLSMDQRLLKLILQNHILKVKVGLNELYNGQILETIGGKQLRVFVYRTAVCIENSCMEKGSKQGRNGAIHIFREIIKPAEKSLHEKLKQDKRFSTFLSLLEAADLKELLTQPGDWTLFVPTNDAFKGMTSEEKEILIRDKNALQNIILYHLTPGVFIGKGFEPGVTNILKTTQGSKIFLKEVNDTLLVNELKSKESDIMTTNGVIHVVDKLLYPADTPVGNDQLLEILNKLIKYIQIKFVRGSTFKEIPVTVYTTKIITKVVEPKIKVIEGSLQPIIKTEGPTLTKVKIEGEPEFRLIKEGETITEVIHGEPIIKKYTKIIDGVPVEITEKETREERIITGPEIKYTRISTGGGETEETLKKLLQEEVTKVTKFIEGGDGHLFEDEEIKRLLQGDTPVRKLQANKKVQGSRRRLREGRSQ
notes: Periostin protein (500 ng/ml; BioVendor)
caErbB2-induced CM proliferation / cell cycle re-entry (Ki67) (caErbb2 CMs [1]): enhanced | RUNX1 expression in caErbb2 CMs (caErbb2 CMs [2]): p38 inhibition, in contrast to FGF1 and Periostin, increased RUNX1 expression | caErbB2-induced hypertrophic response (CM cell area) (caErbb2 CMs [3]): No obvious effects

From patent US10017574B2, “Methods, kits and devices for promoting cardiac regeneration” (Yeda Research and Development Co. Ltd., priority 2015, dated 2018)
